pIC50: −log10 of the molar value. Read-outs that look alike come from different tables or passages of the source.
Columns and labels:
[1] = tested on: HCV replicon cells (2209-23), genotype 1b replicon; test: HCV Replicon Assay (Renilla luciferase reporter); assay type: cell-based, HCV genotype 1b replicon in human hepatoma Huh7 cells; conditions: 2209-23 cells, three days incubation
[2] = target: T1, HCV polymerase (NS5B570n-Con1) (Hepatitis C virus genotype 1b, UniProt Q9WMX2); test: biochemical; set-up: species or system HCV Con1 strain;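 also: recombinant His-tagged enzyme from E. coli, radiolabeled nucleotide incorporation into acid-insoluble RNA read by scintillation after filtration, no-enzyme background subtracted, activity relative to positive control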
T1 construct: contains a 21 amino acid deletion at the C-terminus relative to the full-length HCV polymerase; 6-histidine (N); made in house; host or cells: E. coli strain BL21(DE) pLysS (pET17b)

HCV = conditions: monotherapy; cited from earlier work
[3] = IC50 HCV NS5B RNA Polymerase Assay (values with asterisk), values with asterisk: cIRES RNA template, 3 nM NS5B570n-Con1

Question: With `COc1c(/C=C/c2ccc(NS(C)(=O)=O)cc2)cc(-c2ccc[nH]c2=O)cc1C1(Cl)CC1` [I-267] as the compound, how does the pIC50 ([1]; Hepatitis C virus, 72 h) read?
Answer: 7.99

Question: With `COc1c(/C=C/c2ccc(NS(C)(=O)=O)cc2)cc(-c2ccc[nH]c2=O)cc1C1(C#N)CC1` [I-268, N-(4-{(E)-2-[3-(1-Cyano-cyclopropyl)-2-methoxy-5-(2-oxo-1,2-dihydro-pyridin-3-yl)-phenyl]-vinyl}-phenyl)-methanesulfonamide] as the compound, how does the pIC50 ([1]; Hepatitis C virus, 72 h) read?
Answer: 7.66

Question: With `COc1c(/C=C/c2ccc(NS(C)(=O)=O)cc2)cc(-c2ccc[nH]c2=O)cc1C1(C(F)F)CC1` [I-270] as the compound, how does the pIC50 [2, 3] read?
Answer: 9.00

Question: What about the pIC50 ([1]; Hepatitis C virus, 72 h) of the same compound?
Answer: 7.46

Question: With `COc1c(/C=C/c2ccc(NS(C)(=O)=O)cc2)cc(-c2ccc[nH]c2=O)cc1C(C)(C)C` [I-126, N-(4-{(E)-2-[3-tert-Butyl-2-methoxy-5-(2-oxo-1,2-dihydro-pyridin-3-yl)-phenyl]-vinyl}-phenyl)-methanesulfonamide] as the compound, how does the pIC50 ([1]; Hepatitis C virus, 72 h) read?
Answer: 8.22

Question: With `CC1(C)COc2c(-c3cc(F)c[nH]c3=O)cc(/C=C/c3ccc(NS(C)(=O)=O)cc3)cc21` [II-3] as the compound, how does the pIC50 ([1]; Hepatitis C virus, 72 h) read?
Answer: 7.26

Question: And the melting point?
Answer: 264 to 266 °C

Question: With `COc1c(/C=C/c2ccc(NS(C)(=O)=O)cc2CO)cc(-c2cc(F)c[nH]c2=O)cc1C(C)(C)C` [I-187, N-(4-{(E)-2-[3-tert-Butyl-5-(5-fluoro-2-oxo-1,2-dihydro-pyridin-3-yl)-2-methoxy-phenyl]-vinyl}-3-hydroxymethyl-phenyl)-methanesulfonamide] as the compound, how does the pIC50 [2, 3] read?
Answer: 8.52

Question: And the pIC50 ([1]; Hepatitis C virus, 72 h)?
Answer: 7.36

Question: With `Cc1cc(C(=O)O)ccc1[N+](=O)[O-]` [I-129] as the compound, how does the pIC50 ([2]; values without asterisk, 20 nM NS5B570n-Con1 enzyme, 20 nM cIRES RNA template, read-out: IC50 HCV NS5B RNA Polymerase Assay) read?
Answer: 8.15

Question: And the pIC50 [1]?
Answer: 7.00

Question: With `COc1c(/C=C/c2ccc(NS(C)(=O)=O)cc2)cc(-c2cc(F)c[nH]c2=O)cc1C(C)(C)C` [I-142, N-(4-{(E)-2-[3-tert-Butyl-5-(5-fluoro-2-oxo-1,2-dihydro-pyridin-3-yl)-2-methoxy-phenyl]-vinyl}-phenyl)-methanesulfonamide] as the compound, how does the pIC50 ([1]; Hepatitis C virus, 72 h) read?
Answer: 7.11

Question: What does the source list for `COc1c(/C=C/c2ccc(NS(C)(=O)=O)cc2C(=O)O)cc(-c2ccc[nH]c2=O)cc1C(C)(C)C` [I-203, 2-{(E)-2-[3-tert-Butyl-2-methoxy-5-(2-oxo-1,2-dihydro-pyridin-3-yl)-phenyl]-vinyl}-5-methanesulfonylamino-benzoic acid]?
Answer: pIC50 ([1]; Hepatitis C virus, 72 h): 8.00; melting point: 260 to 262 °C

Question: With `COc1c(/C=C/c2ccccc2C(C)=O)cc(-c2ccc[nH]c2=O)cc1C(C)(C)C` [I-243, 3-{3-[(E)-2-(2-Acetyl-phenyl)-vinyl]-5-tert-butyl-4-methoxy-phenyl}-1H-pyridin-2-one] as the compound, how does the pIC50 ([1]; Hepatitis C virus, 72 h) read?
Answer: 6.68

Question: For `NC(=O)c1ncn([C@@H]2O[C@H](CO)[C@@H](O)[C@H]2O)n1` [ribavirin, 1-((2R,3R,4S,5R)-3,4-Dihydroxy-5-hydroxymethyl-tetrahydro-furan-2-yl)-1H-[1,2,4]triazole-3-carboxylic acid amide], which “patients in whom serum amino transferase levels are reduced to normal” value (HCV) is on record?
Answer: 40%

Question: With `COc1c(/C=C/c2ccc(NS(C)(=O)=O)cc2)cc(-c2ccc[nH]c2=O)c2c1C(C)(C)CC2` [II-5, N-(4-{(E)-2-[4-Methoxy-3,3-dimethyl-7-(2-oxo-1,2-dihydro-pyridin-3-yl)-indan-5-yl]-vinyl}-phenyl)-methanesulfonamide] as the compound, how does the pIC50 [2, 3] read?
Answer: 9.00

Question: What about the melting point of the same compound?
Answer: 283 to 286.6 °C

Question: With `COc1c(C(=O)c2cccc(N)c2)cc(-c2ccc[nH]c2=O)cc1C(C)(C)C` [I-59, 3-[3-(3-amino-benzoyl)-5-tert-butyl-4-methoxy-phenyl]-1H-pyridin-2-one] as the compound, how does the pIC50 ([2]; IC50 HCV NS5B RNA Polymerase Assay, values without asterisk, 20 nM NS5B570n-Con1 enzyme, 20 nM cIRES RNA template) read?
Answer: 8.05

Question: What about the melting point of the same compound?
Answer: 145 to 150 °C

Reference: patent US8273773B2 (priority 2008, dated 2012)
